Test results as given in patent US11197479B2, “Use of silthiofam for the treatment of soybean rust” (priority 2018, dated 2021).
Several values for one entry are separate records, joined by “and”; a condition that tells them apart may be missing. Equal entries are not always repeated.

Tested on: Phakopsora pachyrhizi
Assay: Glasshouse pot trial: efficacy on soybean rust on soybean (Glycine max), visual estimation of degree of infection on leaves
Type: in vivo
Experimental: In the tables presented below, the following terms have the following meaning:
Glasshouse pot trials were conducted to evaluate the effect and efficacy of silthiofam on soybean rust disease on soybean (Glycine max).
The trial was divided in 11 treatments. In 4 of the treatments, silthiofam was applied in different amounts.
Silthiofam compositions used in this trial were prepared from the suspension concentrate containing 125 g/L of silthiofam, diluted with water to predetermined concentration and sprayed on the plants in the predetermined amounts.
In two of the treatments, silthiofam was applied in combination with additional ingredients.
First combination was of silthiofam and chitosan, wherein silthiofam was applied in an amount of 250 g/ha on the plant first and chitosan was applied subsequently in an amount of 200 g/ha.
Second combination was a combination of silthiofam and tagatose, wherein silthiofam was applied in an amount of 250 g/ha simultaneously with tagatose in an amount of 200 g/ha.
Further 6 treatments were current market available treatments of soybean rust applied in the label prescribed dose, wherein the compositions used were prepared from commercially available products prepared according to the respective label instructions and sprayed on the plants.
One treatment of the trial consisted of fungi inoculated plants which received no treatment.
Soybean plants were treated two times with silthiofam and other treatments. First treatment was applied when soybean plants reached stage BBCH16 and the second treatment was applied when soybean plants reached stage BBCH61. Growth stages were defined according to Compendium of Growth Stage Identification Keys for Mono- and Dicotyledonous Plants, Extended BBCH scale, 2nd Edition 1997, ISBN 3-9520749-3-4.
After silthiofam and other treatments were applied first time, plants were inoculated with Phakopsora pachyrhizi spores and evaluation of leaves condition and disease spread was done every 7 days.
Method used for evaluation of disease spread was visual estimation of degree of infection on leaves.
The experimental design of the pot trial was randomized design with 4 pot replications per treatment applied, wherein six soybean plants were planted per pot.
Treatments were the following:
Treatment 1: Plant inoculated with P. pachyrhizi, no treatment applied
Treatment 2: Treatment with flutriafol and azoxystrobin mixture, applied in concentration of 31.25 g flutriafol/ha and 37.5 g azoxystrobin/ha
Treatment 3: Silthiofam treatment applied in 250 g silthiofam/ha
Treatment 4: Silthiofam treatment applied in 500 g silthiofam/ha
Treatment 5: Silthiofam treatment applied in 250 g silthiofam/ha and 200 g/ha of tagatose
Treatment 6: Silthiofam treatment applied in 250 g silthiofam/ha and 200 g/ha of chitosan
Treatment 7: Mancozeb applied in 1.68 kg mancozeb/ha
Treatment 8: Chlorothalonil applied in 626.4 g chlorothalonil/ha
Treatment 9: Azoxystrobin applied in 37.5 g azoxystrobin/ha
Treatment 10: Boscalid applied in 294 g boscalid/ha
Treatment 11: Prothioconazole and tebuconazole mixture applied as 42 g prothioconazole/ha and 84 g tebuconazole/ha

Molecule: CO/C=C(/C(=O)OC)c1ccccc1Oc1cc(Oc2ccccc2C#N)ncn1 [Azoxystrobin]
- % efficacy (azoxystrobin 37.5 g/ha, 7/7 d after first/last application, 19 d after planting, LEALOW): 64.3% and 72.8% and 67.8% and 77.8%
- % efficacy (azoxystrobin 37.5 g/ha, 7/7 d after first/last application, 19 d after planting, LEAMID): 73.4% and 88.9% and 81.9% and 100.0%
- % efficacy (azoxystrobin 37.5 g/ha, 7/7 d after first/last application, 19 d after planting, LEAUPP): 100.0%
- % efficacy (azoxystrobin 37.5 g/ha, 14/14 d after first/last application, 26 d after planting, LEALOW): 85.0% and 79.0% and 84.1% and 80.6%
- % efficacy (azoxystrobin 37.5 g/ha, 14/14 d after first/last application, 26 d after planting, LEAMID): 92.0% and 94.5% and 90.0% and 89.4%
- % efficacy (azoxystrobin 37.5 g/ha, 14/14 d after first/last application, 26 d after planting, LEAUPP): 98.6% and 90.8% and 98.7%
- % efficacy (azoxystrobin 37.5 g/ha, 21/21 d after first/last application, 33 d after planting, LEALOW): 72.0% and 65.0% and 59.0% and 60.0%
- % efficacy (azoxystrobin 37.5 g/ha, 21/21 d after first/last application, 33 d after planting, LEAMID): 82.0% and 79.0% and 90.0% and 78.0%
- % efficacy (azoxystrobin 37.5 g/ha, 21/21 d after first/last application, 33 d after planting, LEAUPP): 100.0%
- % efficacy (azoxystrobin 37.5 g/ha, 28/7 d after first/last application, 40 d after planting, LEALOW): 54.0% and 67.0% and 65.0% and 62.0%
- % efficacy (azoxystrobin 37.5 g/ha, 28/7 d after first/last application, 40 d after planting, LEAMID): 82.0% and 85.0% and 88.0%
- % efficacy (azoxystrobin 37.5 g/ha, 28/7 d after first/last application, 40 d after planting, LEAUPP): 100.0%
- % efficacy (azoxystrobin 37.5 g/ha, 35/14 d after first/last application, 47 d after planting, LEAMID): 85.0% and 88.0% and 82.0%
- % efficacy (azoxystrobin 37.5 g/ha, 35/14 d after first/last application, 47 d after planting, LEAUPP): 100.0% and 98.9%
- % efficacy (azoxystrobin 37.5 g/ha, 42/21 d after first/last application, 54 d after planting, LEAMID): 52.0% and 62.0% and 56.0% and 58.0%
- % efficacy (azoxystrobin 37.5 g/ha, 42/21 d after first/last application, 54 d after planting, LEAUPP): 82.0% and 85.0% and 86.0%

Molecule: O=C(Nc1ccccc1-c1ccc(Cl)cc1)c1cccnc1Cl [Boscalid]
- % efficacy (boscalid 294 g/ha, 7/7 d after first/last application, 19 d after planting, LEALOW): 85.8% and 86.4% and 93.6% and 100.0%
- % efficacy (boscalid 294 g/ha, 7/7 d after first/last application, 19 d after planting, LEAMID): 100.0%
- % efficacy (boscalid 294 g/ha, 7/7 d after first/last application, 19 d after planting, LEAUPP): 100.0%
- % efficacy (boscalid 294 g/ha, 14/14 d after first/last application, 26 d after planting, LEALOW): 76.0% and 80.0% and 78.0%
- % efficacy (boscalid 294 g/ha, 14/14 d after first/last application, 26 d after planting, LEAMID): 90.0% and 86.8% and 88.0% and 85.1%
- % efficacy (boscalid 294 g/ha, 14/14 d after first/last application, 26 d after planting, LEAUPP): 98.6% and 92.6% and 98.7%
- % efficacy (boscalid 294 g/ha, 21/21 d after first/last application, 33 d after planting, LEALOW): 55.0% and 42.0% and 38.0% and 35.0%
- % efficacy (boscalid 294 g/ha, 21/21 d after first/last application, 33 d after planting, LEAMID): 56.0% and 49.0% and 55.0% and 52.0%
- % efficacy (boscalid 294 g/ha, 21/21 d after first/last application, 33 d after planting, LEAUPP): 91.9% and 88.9% and 89.4% and 92.9%
- % efficacy (boscalid 294 g/ha, 28/7 d after first/last application, 40 d after planting, LEALOW): 49.0% and 52.0% and 51.0% and 44.0%
- % efficacy (boscalid 294 g/ha, 28/7 d after first/last application, 40 d after planting, LEAMID): 44.0% and 48.0% and 56.0% and 52.0%
- % efficacy (boscalid 294 g/ha, 28/7 d after first/last application, 40 d after planting, LEAUPP): 85.9% and 100.0% and 93.1% and 85.7%
- % efficacy (boscalid 294 g/ha, 35/14 d after first/last application, 47 d after planting, LEAMID): 35.0% and 42.0% and 48.0% and 43.0%
- % efficacy (boscalid 294 g/ha, 35/14 d after first/last application, 47 d after planting, LEAUPP): 83.6% and 82.0% and 77.3% and 82.2%
- % efficacy (boscalid 294 g/ha, 42/21 d after first/last application, 54 d after planting, LEAUPP): 75.0% and 67.0% and 64.0% and 72.0%

Molecule: Mancozeb
- % efficacy (mancozeb 1.68 kg/ha, 7/7 d after first/last application, 19 d after planting, LEALOW): 50.0% and 65.9% and 64.6% and 61.2%
- % efficacy (mancozeb 1.68 kg/ha, 7/7 d after first/last application, 19 d after planting, LEAMID): 46.7% and 72.3% and 54.6% and 50.0%
- % efficacy (mancozeb 1.68 kg/ha, 7/7 d after first/last application, 19 d after planting, LEAUPP): 100.0%
- % efficacy (mancozeb 1.68 kg/ha, 14/14 d after first/last application, 26 d after planting, LEALOW): 67.0% and 75.0% and 56.4% and 64.3%
- % efficacy (mancozeb 1.68 kg/ha, 14/14 d after first/last application, 26 d after planting, LEAMID): 82.0% and 78.0% and 73.5%
- % efficacy (mancozeb 1.68 kg/ha, 14/14 d after first/last application, 26 d after planting, LEAUPP): 83.8% and 72.3% and 85.9% and 76.0%
- % efficacy (mancozeb 1.68 kg/ha, 21/21 d after first/last application, 33 d after planting, LEALOW): 42.0% and 38.0% and 52.0% and 48.0%
- % efficacy (mancozeb 1.68 kg/ha, 21/21 d after first/last application, 33 d after planting, LEAMID): 66.0% and 62.0% and 59.0% and 60.0%
- % efficacy (mancozeb 1.68 kg/ha, 21/21 d after first/last application, 33 d after planting, LEAUPP): 71.0% and 72.3% and 66.7% and 60.0%
- % efficacy (mancozeb 1.68 kg/ha, 28/7 d after first/last application, 40 d after planting, LEALOW): 28.0% and 35.0% and 32.0% and 25.0%
- % efficacy (mancozeb 1.68 kg/ha, 28/7 d after first/last application, 40 d after planting, LEAMID): 62.0% and 56.0% and 54.0% and 49.0%
- % efficacy (mancozeb 1.68 kg/ha, 28/7 d after first/last application, 40 d after planting, LEAUPP): 82.1% and 74.2% and 73.7% and 68.9%
- % efficacy (mancozeb 1.68 kg/ha, 35/14 d after first/last application, 47 d after planting, LEAMID): 48.0% and 36.0% and 32.0% and 43.0%
- % efficacy (mancozeb 1.68 kg/ha, 35/14 d after first/last application, 47 d after planting, LEAUPP): 72.6% and 67.0% and 59.0% and 54.8%
- % efficacy (mancozeb 1.68 kg/ha, 42/21 d after first/last application, 54 d after planting, LEAUPP): 54.0% and 43.0% and 52.0% and 38.0%

Molecule: N#Cc1c(Cl)c(Cl)c(Cl)c(C#N)c1Cl [Chlorothalonil]
- % efficacy (chlorothalonil 626.4 g/ha, 7/7 d after first/last application, 19 d after planting, LEALOW): 35.8% and 65.9% and 54.9% and 50.0%
- % efficacy (chlorothalonil 626.4 g/ha, 7/7 d after first/last application, 19 d after planting, LEAUPP): 100.0%
- % efficacy (chlorothalonil 626.4 g/ha, 14/14 d after first/last application, 26 d after planting, LEALOW): 75.0% and 69.0% and 68.1% and 59.2%
- % efficacy (chlorothalonil 626.4 g/ha, 14/14 d after first/last application, 26 d after planting, LEAMID): 85.0% and 80.2% and 79.0% and 67.1%
- % efficacy (chlorothalonil 626.4 g/ha, 14/14 d after first/last application, 26 d after planting, LEAUPP): 88.3% and 81.5% and 78.9% and 80.0%
- % efficacy (chlorothalonil 626.4 g/ha, 21/21 d after first/last application, 33 d after planting, LEALOW): 55.0% and 40.0% and 44.0% and 45.0%
- % efficacy (chlorothalonil 626.4 g/ha, 21/21 d after first/last application, 33 d after planting, LEAMID): 72.0% and 70.0% and 65.0% and 62.0%
- % efficacy (chlorothalonil 626.4 g/ha, 21/21 d after first/last application, 33 d after planting, LEAUPP): 82.3% and 80.6% and 72.0% and 64.3%
- % efficacy (chlorothalonil 626.4 g/ha, 28/7 d after first/last application, 40 d after planting, LEALOW): 22.0% and 34.0% and 32.0% and 26.0%
- % efficacy (chlorothalonil 626.4 g/ha, 28/7 d after first/last application, 40 d after planting, LEAMID): 56.0% and 52.0% and 55.0% and 54.0%
- % efficacy (chlorothalonil 626.4 g/ha, 28/7 d after first/last application, 40 d after planting, LEAUPP): 74.4% and 70.6% and 70.9% and 76.7%
- % efficacy (chlorothalonil 626.4 g/ha, 35/14 d after first/last application, 47 d after planting, LEAMID): 52.0% and 44.0% and 48.0% and 42.0%
- % efficacy (chlorothalonil 626.4 g/ha, 35/14 d after first/last application, 47 d after planting, LEAUPP): 63.8% and 69.0% and 68.0%
- % efficacy (chlorothalonil 626.4 g/ha, 42/21 d after first/last application, 54 d after planting, LEAUPP): 52.0% and 45.0% and 42.0% and 48.0%
